Tests used:
skin = assay: Irritation test on panels sensitive to irritation; format: in vivo
Text: Particularly, 15 panels sensitive to irritation, such as stinging, burning, etc., are subjected to a test for determining irritation feeling, including stinging, itch and dazzling. […] The results are shown in the following Table 2. <Evaluation Criteria> 0-0.4: No irritation 0.5-1.0: slight irritation 1.1-2.0: mild irritation 2.1-3.0: severe irritation

[1] = tested on: C57BL/6 mouse-derived pigment cells (Mel-Ab cells); assay: Effect of inhibiting melanin production using mouse pigment cells (Dooley's method); format: cell-based; conditions: 72 h, each sample at 10 ppm, Mel-Ab cells cultured 3 days, absorbance at 400 nm
Procedure: C57BL/6 mouse-derived pigment cells (Mel-Ab cells) (Dooley, T. P. et al., Skin pharmacol, 7, pp. 188-200) are cultured in a DMEM ([…]), to which 10% fetal bovine serum, 100 nM 12-O-tetradecanoylphorbol-13-acetate and 1 nM cholera toxin are added, at 37° C. under 5% CO2. The cultured Mel-Ab cells are released by using 0.25% trypsin-EDTA and incubated on a 24-well plate at a concentration of 10^5 cells/well. From the next day, each test sample is added to culture the cells continuously for 3 days.
The test samples used herein include hydroquinone, the extract of traditional herbal medicine of Comparative Example 1 and the extract of traditional herbal medicine obtained by polished-rice steaming method according to Example 1. Each sample is used at a concentration of 10 ppm. Hydroquinone is used as a positive control. Then, the culture medium is removed and the cells are washed with phosphate buffered saline (PBS). The cells are subjected to cell lysis using 1N sodium hydroxide and absorbance is determined at 400 nm. The absorbance measurement is used to calculate % inhibition of melanin production according to the following Mathematical Formula 1. The results are shown in the following Table 1 (Dooley's method). % Inhibition of melanin production=100−{(absorbance of each sample/absorbance of control)×100} [Mathematical Formula 1]

[2] = grade 0 to 3.0, 0.5 mL applied onto skin, 15 panels, 0-0.4 no, 0.5-1.0 slight, 1.1-2.0 mild, 2.1-3.0 severe irritation

| Compound | Average (skin; average of stinging and burning grades, grade 0 to 3.0, 0-0.4 no, 0.5-1.0 slight irritation) | Burning (skin; [2]) | Stinging (skin; [2]) | irritation (in words) (skin; summary of Table 2, 0.5 mL applied onto skin) | inhibition at 10 ppm [1] |
| --- | --- | --- | --- | --- | --- |
| O=c1cc(CO)occ1O [Kojic acid, kojic acid] | 0.68 | 0.50 | 0.85 | perceptible degree of irritation | – |
| Oc1ccc(O)cc1 [Hydroquinone, hydroquinone] | – | – | – | – | 58.9% |
